Counter-ions that a name gives are not always drawn. Like-named read-outs stand apart in the source and are kept apart here.
Key:
[1] = UTs concentration and renal uptake ratio detection in WT and KO rats; assay type: in vivo, rat; settings: for plasma concentration of endogenous UT, KO compared with WT rats / renal uptake ratio of endogenous UT, KO compared with WT rats: 4W and/or 7W rats, n = 7; for urine concentration of endogenous UT, KO compared with WT rats: 12-h urine, 4W and 7W rats
Protocol: We collected blood, 12-h urine and kidney tissue samples of 4W and 7W WT and KO rats. The concentrations of UTs were measured by the liquid chromatography-tandem mass spectrometry (LC-MS/MS), which consisted of an Agilent 1260 liquid chromatography and a 6460 triple-quadrupole mass spectrometer operated in the electrospray ionization mode (Agilent Technologies, Santa Clara, CA, USA). Chromatographic separations were performed on an Agilent ZORBAX RR StableBond C18 analytical guard column (4.6 mm × 100 mm, 3.5 µm, Agilent Technologies, Santa Clara, CA, USA) at 30 °C. The MS parameters are shown in Supporting Information Table S1. […] The internal standard used in the positive ion mode was d3-creatinine, and in the negative ion mode was d5-hippuric acid.

[2] = furosemide ref 19; PAH ref 17, 52; cited from earlier work
[3] = Urinary excretion after intravenous drug cocktail in WT and KO rats; assay type: in vivo, rat; settings: KO vs WT rats, i.v. cocktail, urine to 12 h
Protocol: The blood samples were centrifuged at 8000× g for 10 min and the supernatant was stored at −80 °C for detection.

[4] = Slc22a6/Slc22a8-/- rats, i.v. cocktail, mean ± S.D., n = 5
[5] = WT rats, i.v. cocktail, mean ± S.D., n = 5

Molecule	plasma concentration of endogenous UT, KO compared with WT rats [1]	renal uptake ratio of endogenous UT, KO compared with WT rats [1]	also measured
OC[C@H]1O[C@@H](Oc2c[nH]c3ccccc23)[C@H](O)[C@@H](O)[C@@H]1O [3-indolyl-β-D-glucopyranoside]	significantly increased	obviously decreased	–
O=C(O)c1cc(=O)[nH]c(=O)[nH]1 [orotic acid]	significantly increased	obviously decreased	–
O=C(O)[C@H]1O[C@@H](Oc2ccccc2)[C@H](O)[C@@H](O)[C@@H]1O [phenyl-β-D-glucuronide]	significantly lower	much higher	–
O=c1[nH]c(=O)c2[nH]c(=O)[nH]c2[nH]1 [uric acid]	significantly increased	obviously decreased	–
CC(=O)N[C@@H](CCCN=C(N)N)C(=O)O [N-acetyl-L-arginine]	significantly increased	obviously decreased	–
Nc1ccc(C(=O)NCC(=O)O)cc1 [PAH, p-aminohippuric acid]	–	–	plasma protein binding rate [2]: low
O=C(O)CNC(=O)c1ccccc1 [hippuric acid]	significantly increased	obviously decreased	–
CCc1ccc(OS(=O)(=O)[O-])cc1.[K+] [4-ethylphenyl sulfate]	significantly increased	obviously decreased	urine concentration of endogenous UT, KO compared with WT rats [1]: increased
N[C@@H](CCCCNCC(=O)O)C(=O)O [N6-(carboxymethyl)-l-lysine]	significantly increased	obviously decreased	–
Cc1ccc(OS(=O)(=O)O)cc1 [p-cresol sulfate]	significantly increased	obviously decreased	–
CN(C)c1nc2c(ncn2[C@@H]2O[C@H](CO)[C@@H](O)[C@H]2O)c(=O)[nH]1 [N2,N2-dimethylguanosine]	–	–	urine concentration of endogenous UT, KO compared with WT rats [1]: clearly decreased
inulin	–	–	urinary excretion / urine concentration, KO compared with WT rats [3]: significantly decreased; plasma concentration, KO compared with WT rats (KO vs WT rats, i.v. cocktail): much higher; AUC(0–12) (Slc22a6/Slc22a8-/- rats, i.v. cocktail (PAH 5 mg/kg, metformin 5 mg/kg, inulin 100 mg/kg), mean ± S.D., n = 5): 14,208.11 ± 1433.67 ng/mL·min; AUC(0–∞) [4]: 16,434.89 ± 1696.15 ng/mL·min; CL/F [4]: 6137.27 ± 639.31; Cmax [4]: 376.40 ± 36.13 ng/mL; MRT(0–12) [4]: 35.34 ± 4.08 min; MRT(0–∞) [4]: 37.99 ± 4.20 min; V1/F [4]: 185,957.58 ± 15,232.62 L/kg; t1/2α [4]: 5.23 ± 2.51 min; CL/F [5]: 7427.26 ± 724.03; Cmax [5]: 324.47 ± 33.41 ng/mL; MRT(0–12) [5]: 28.71 ± 5.54 min; MRT(0–∞) [5]: 34.03 ± 8.70 min; V1/F [5]: 241,341.96 ± 36672.44 L/kg; t1/2α [5]: 14.75 ± 4.72 min
CC(=O)Nc1ccn([C@@H]2O[C@H](CO)[C@@H](O)[C@H]2O)c(=O)n1 [N-acetylcytidine]	significantly increased	obviously decreased	–
Cn1cnc2c(ncn2[C@@H]2O[C@H](CO)[C@@H](O)[C@H]2O)c1=O [1-methyl-inosine]	significantly increased	obviously decreased	urine concentration of endogenous UT, KO compared with WT rats [1]: clearly decreased
Cc1ccc(O[C@@H]2O[C@H](C(=O)O)[C@@H](O)[C@H](O)[C@H]2O)cc1 [p-cresol glucuronide]	significantly lower	much higher	–
O=C(O)CNC(=O)C=Cc1ccccc1 [N-(cinnamoyl)glycine]	significantly lower	much higher	–
Nc1ccccc1C(=O)C[C@@H](N)C(=O)O [D-kynurenine]	significantly increased	obviously decreased	–
O=S(=O)([O-])Oc1c[nH]c2ccccc12.[K+] [3-indoxyl sulfate potassium salt]	significantly increased	obviously decreased	–
CN1CC(=O)NC1=N [creatinine]	not significantly increased	–	–

— article PMC9697873, “Construction and Evaluation of a Novel Organic Anion Transporter 1/3 CRISPR/Cas9 Double-Knockout Rat Model” (Pharmaceutics, 2022)
